Experimental findings from ChEMBL document CHEMBL5120922, “Discovery, Optimization, and Evaluation of Potent and Selective PI3Kδ-γ Dual Inhibitors for the Treatment of B-cell Malignancies” (J Med Chem, 2022) are described below.

For one series, the system named is SUD4. The experiment in a line: Antiproliferative activity against human SU-DHL-4 cells assessed as cell growth inhibition measured after 72 hrs by MTT assay. The settings on record: SU-DHL-4, 72 h. Type of series: functional, cell-based.
Series [1] in a line: Cmax in Sprague-Dawley rat at 2 mg/kg, iv measured upto 24 hrs by LC-MS/MS analysis. Type of series: ADME, organism-based. More on the design: time < 24 hrs, dose 2 mg/kg, route iv. To be noted: in vivo.
Series [2] is described as follows: Tmax in Sprague-Dawley rat at 10 mg/kg, po measured upto 24 hrs by LC-MS/MS analysis. Type of series: ADME, organism-based. To be noted: in vivo.
Series [3] is described as follows: Tmax in Sprague-Dawley rat at 2 mg/kg, iv measured upto 24 hrs by LC-MS/MS analysis. It is filed as ADME, organism-based. To be noted: in vivo.
The nature of series [4]: Half life in Sprague-Dawley rat at 5 mg/kg, iv measured upto 24 hrs by LC-MS/MS analysis. It is filed as ADME, organism-based. To be noted: in vivo.
A short description of series [5]: Half life in Sprague-Dawley rat at 2 mg/kg, iv measured upto 24 hrs by LC-MS/MS analysis. It is filed as ADME, organism-based. To be noted: in vivo.
Series [6] is described as follows: Clearance in Sprague-Dawley rat at 2 mg/kg, iv measured upto 24 hrs by LC-MS/MS analysis. The settings on record: in vivo. Type of series: ADME, organism-based.
The nature of series [7]: Oral bioavailability in Sprague-Dawley rat at 5 mg/kg measured upto 24 hrs by LC-MS/MS analysis. The settings on record: in vivo. Type of series: ADME, organism-based.
The test system of series [8] is SU-DHL-6. Description: Induction of cell cycle arrest in human SU-DHL-6 cells assessed as accumulation of cells at G0/G1 phase at 0.5 uM incubated for 24 hrs by PI staining based FACScan flow cytometry analysis (reference value: 55.61 %). Type of series: functional.
In series [9] the test system is SU-DHL-6. Description: Induction of cell cycle arrest in human SU-DHL-6 cells assessed as accumulation of cells at S phase at 0.5 uM incubated for 24 hrs by PI staining based FACScan flow cytometry analysis (reference value: 24.18 %). Type of series: functional.
Series [10] concerns SU-DHL-6. The experiment in a line: Induction of cell cycle arrest in human SU-DHL-6 cells assessed as accumulation of cells at G2/M phase at 0.5 uM incubated for 24 hrs in presence of ibrutinib by PI staining based FACScan flow cytometry analysis (reference value: 20.21 %). Type of series: functional. (In flow cytometry, cells or beads pass a laser one at a time.)
In series [11] the test system is DOHH-2. The experiment in a line: Induction of cell cycle arrest in human DOHH-2 cells assessed as accumulation of cells at G0/G1 phase at 0.5 uM incubated for 24 hrs in presence of ibrutinib by PI staining based flow cytometry analysis (reference value: 23.47 %). Type of series: functional.
In series [12] the test system is DOHH-2. Description: Induction of cell cycle arrest in human DOHH-2 cells assessed as accumulation of cells at S phase at 0.5 uM incubated for 24 hrs in presence of ibrutinib by PI staining based flow cytometry analysis (reference value: 55.11 %). It is filed as functional.
Series [13] relates to DOHH-2. The experiment in a line: Induction of cell cycle arrest in human DOHH-2 cells assessed as accumulation of cells at G2/M phase at 0.5 uM incubated for 24 hrs by PI staining based flow cytometry analysis (reference value: 21.42 %). It is filed as functional.
Series [14] relates to SU-DHL-6. Description: Induction of apoptosis in human SU-DHL-6 cells assessed as viable cells at 1.5 uM incubated for 48 hrs by annexin V-FITC and PI staining based flow cytometry analysis (reference value: 87.0 %). To be noted: read-out: Activity. It is filed as functional.
The subject of series [15] is SU-DHL-6. Description: Induction of apoptosis in human SU-DHL-6 cells assessed as necrotic cells at 1.5 uM incubated for 48 hrs by annexin V-FITC and PI staining based flow cytometry analysis (reference value: 0.32%). It is filed as functional.
Series [16] deals with SU-DHL-6. The experiment in a line: Induction of apoptosis in human SU-DHL-6 cells assessed as viable cells at 1.5 uM incubated for 48 hrs in presence of ibrutinib by annexin V-FITC and PI staining based flow cytometry analysis (reference value: 87.0 %). It is filed as functional. To be noted: read-out: Activity.
The subject of series [17] is DOHH-2. Description: Induction of apoptosis in human DOHH-2 cells assessed as necrotic cells at 2 uM incubated for 48 hrs by annexin V-FITC and PI staining based flow cytometry analysis (Rvb =0.29 %). Type of series: functional.
Series [18] concerns DOHH-2. The experiment in a line: Induction of apoptosis in human DOHH-2 cells assessed as early apoptotic cells at 2 uM incubated for 48 hrs in presence of ibrutinib by annexin V-FITC and PI staining based flow cytometry analysis (reference value: 2.09 %). Type of series: functional.
In series [19] the test system is SU-DHL-6. Description: Antitumor activity against human SU-DHL-6 cells xenografted in NOD/SCID mouse assessed as reduction in tumor volume at 10 mg/kg, po measured every 2 days in presence of ibrutinib. Type of series: functional, organism-based. The settings on record: time 2.0 day. (In general: Xenograft models place foreign cells or tissue in a host animal.)

Series [20] is described as follows: Toxicity in human SU-DHL-6 cells xenografted in NOD/SCID mouse at 10 mg/kg, po measured every 2 days in presence of ibrutinib. Type of series: organism-based. To be noted: in vivo, 48 h, time 2 day.
The target in series [21] is T1, Phosphatidylinositol 4,5-bisphosphate 3-kinase catalytic subunit delta isoform (Homo sapiens, UniProt O00329).
T1 sequence (O00329 whole entry): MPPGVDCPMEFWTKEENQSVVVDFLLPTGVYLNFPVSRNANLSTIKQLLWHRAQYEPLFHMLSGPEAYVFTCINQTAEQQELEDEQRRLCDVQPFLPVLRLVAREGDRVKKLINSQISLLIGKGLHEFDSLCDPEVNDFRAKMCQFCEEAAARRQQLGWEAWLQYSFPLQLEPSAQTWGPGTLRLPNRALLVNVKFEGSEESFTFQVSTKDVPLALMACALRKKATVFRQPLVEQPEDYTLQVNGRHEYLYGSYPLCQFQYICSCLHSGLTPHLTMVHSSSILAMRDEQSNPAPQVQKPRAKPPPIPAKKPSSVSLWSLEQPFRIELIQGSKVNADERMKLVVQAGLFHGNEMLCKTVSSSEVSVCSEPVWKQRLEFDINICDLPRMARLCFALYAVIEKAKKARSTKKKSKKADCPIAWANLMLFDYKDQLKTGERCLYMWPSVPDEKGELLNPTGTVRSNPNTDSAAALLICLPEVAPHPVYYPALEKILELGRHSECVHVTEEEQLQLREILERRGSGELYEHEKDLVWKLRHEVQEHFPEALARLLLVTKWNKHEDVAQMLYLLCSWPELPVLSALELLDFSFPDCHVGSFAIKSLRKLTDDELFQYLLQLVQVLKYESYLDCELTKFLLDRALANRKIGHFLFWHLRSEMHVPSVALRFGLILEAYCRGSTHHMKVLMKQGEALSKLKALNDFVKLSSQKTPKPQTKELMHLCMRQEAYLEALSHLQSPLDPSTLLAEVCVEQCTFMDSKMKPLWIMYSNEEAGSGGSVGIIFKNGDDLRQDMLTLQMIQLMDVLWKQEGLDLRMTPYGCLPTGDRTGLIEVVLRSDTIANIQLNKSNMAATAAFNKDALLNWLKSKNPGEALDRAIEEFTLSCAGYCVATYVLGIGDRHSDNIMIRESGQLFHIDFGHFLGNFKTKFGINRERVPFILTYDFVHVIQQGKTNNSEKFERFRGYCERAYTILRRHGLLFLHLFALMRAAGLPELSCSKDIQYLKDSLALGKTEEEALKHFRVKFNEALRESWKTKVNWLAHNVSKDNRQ
The experiment in a line: Inhibition of N-terminal His6-tagged recombinant full length human PI3Kdelta expressed in baculovirus infected Sf21 insect cells incubated for 30 mins by HTRF assay.

For series [22], the target named is Phosphatidylinositol 4,5-bisphosphate 3-kinase catalytic subunit beta isoform (Homo sapiens, UniProt P42338). Description: Inhibition of N-terminal His6-tagged recombinant full length human PI3Kbeta expressed in baculovirus infected Sf21 insect cells incubated for 30 mins by HTRF assay. In general terms: Time-resolved FRET reads energy transfer from a long-lived donor to a nearby acceptor.
Chain of Phosphatidylinositol 4,5-bisphosphate 3-kinase catalytic subunit beta isoform (P42338 whole entry, canonical isoform): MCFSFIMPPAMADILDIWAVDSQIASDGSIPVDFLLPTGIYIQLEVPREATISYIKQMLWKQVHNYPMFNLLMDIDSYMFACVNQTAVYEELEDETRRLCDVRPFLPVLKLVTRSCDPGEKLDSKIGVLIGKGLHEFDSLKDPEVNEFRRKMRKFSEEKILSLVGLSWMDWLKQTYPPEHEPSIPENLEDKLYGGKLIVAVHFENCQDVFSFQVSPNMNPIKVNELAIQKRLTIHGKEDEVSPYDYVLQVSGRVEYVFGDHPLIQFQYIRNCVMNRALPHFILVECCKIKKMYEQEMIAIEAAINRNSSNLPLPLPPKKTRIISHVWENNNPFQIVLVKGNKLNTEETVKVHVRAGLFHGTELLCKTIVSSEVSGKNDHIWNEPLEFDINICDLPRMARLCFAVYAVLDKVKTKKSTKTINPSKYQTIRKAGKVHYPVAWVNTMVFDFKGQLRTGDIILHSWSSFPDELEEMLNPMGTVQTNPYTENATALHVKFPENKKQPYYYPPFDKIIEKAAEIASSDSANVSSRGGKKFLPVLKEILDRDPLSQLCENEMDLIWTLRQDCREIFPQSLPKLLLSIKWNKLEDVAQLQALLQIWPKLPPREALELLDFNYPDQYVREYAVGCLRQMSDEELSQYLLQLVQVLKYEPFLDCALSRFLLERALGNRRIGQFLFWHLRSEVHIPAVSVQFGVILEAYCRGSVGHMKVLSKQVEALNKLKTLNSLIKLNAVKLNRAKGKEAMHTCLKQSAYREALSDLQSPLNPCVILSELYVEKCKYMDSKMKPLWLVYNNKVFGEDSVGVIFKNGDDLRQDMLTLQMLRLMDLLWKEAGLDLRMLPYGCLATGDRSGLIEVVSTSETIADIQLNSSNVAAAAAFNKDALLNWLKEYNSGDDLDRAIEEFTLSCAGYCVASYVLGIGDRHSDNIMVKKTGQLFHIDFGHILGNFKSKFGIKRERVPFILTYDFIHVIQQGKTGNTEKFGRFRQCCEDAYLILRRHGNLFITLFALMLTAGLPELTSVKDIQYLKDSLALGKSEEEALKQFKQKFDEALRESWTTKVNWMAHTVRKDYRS

The structures appear in SMILES notation. Activity calls are given as the source filed them. The rule behind the calls is not given here.

Regarding `C[C@H]1CC[C@@H](c2nc3cccc(Cl)c3c(=O)n2-c2cccnc2)N1c1nc(N)nc(N)c1C#N`, the figures for the IC50 (with SUD4; in [21]; in series [22]) were 0.03 µM, 1 µM and 84 µM, respectively. In addition, in series [1], the concentration peaked (Cmax) at 1520 ng/mL. Moreover, the Tmax (commonly the time at which the peak concentration occurs) in [2] was 0.83 h; in series [3], 1.2 h. Also, the figures for the half-life in series [4] and in [5] were 2.79 h and 0.73 h, respectively. The clearance – broadly, the volume of plasma or blood freed of the substance per unit of time – in series [6] was 30.5 mL/min/kg. In [7], the bioavailability was determined as 126%. In addition, the Activity in the series with SU-DHL-6 [8] came out at 63.84%; with SU-DHL-6 [9], 26.15%; with SU-DHL-6 [10] it was 4.62%; with DOHH-2 [11] it was 53.16%; with DOHH-2 [12], 32.92%; in the series on DOHH-2 [13] it was 12.82%. Moreover, the Activity in the series on SU-DHL-6 [15] is recorded as 0.18%; with DOHH-2 [17] it was 1.45%; in the series with DOHH-2 [18] it was 48.9%; in [20], “Non-Toxic”. The viability at 1.5 µM is 74.7% in the series with SU-DHL-6 [14] and 47.1% with SU-DHL-6 [16]. Further, in the series with SU-DHL-6 [19], the result was Active.
